Reference: ChEMBL document CHEMBL3885861, “Open TG-GATES”

Species on record: Rattus norvegicus
Assay: Open TG-GATES - Regimen: Single
Format: toxicity, organism-based, Sprague-Dawley
Parameters: regimen Single, gender Male, age 6 weeks
Settings: in vivo, po, 100 mg/kg, route gavage, dose level Low; for APTT / Bas / Eos / Fbg / Hb / Ht / Lym / MCH / MCHC / MCV / Mono / Neu / PT / Plat / RBC / Ret / WBC: tissue Blood; for KIDNEY_L / KIDNEY_R / KIDNEY_TOTAL: tissue Kidney; for LIVER: tissue Liver; for A/G / ALP / ALT / AST / BUN / CRE / Ca / Cl / DBIL / GLC / IP / K / LDH / Na / PL / RALB / TBIL / TC / TG / TP / gamma-GTP: tissue Plasma

## CC(=O)Nc1ccc2c(c1)Cc1ccccc1-2 [2-ACETYLAMINOFLUORENE]
3 h
  TERMINAL_BW: 222.2 g
  APTT: 19.4 s
  Bas: 0.8%
  Eos: 1%
  Fbg: 228.6 mg/dL
  Hb: 14.1 g/dL
  Ht: 40.7%
  Lym: 76.4%
  MCH: 21.6 pg
  MCHC: 34.7%
  MCV: 62.3 fL
  Mono: 2%
  Neu: 19.2%
  PT: 11.6 s
  Plat: 114.3 x10_4/uL
  RBC: 653.2 x10_4/ul
  Ret: 7%
  WBC: 73.8 x10_2/uL
  KIDNEY_L: 1 g
  KIDNEY_R: 1 g
  KIDNEY_TOTAL: 2 g
  LIVER: 10.4 g
  A/G: 1.8
  ALP: 1019.4 IU/L
  ALT: 37.6 IU/L
  AST: 77 IU/L
  BUN: 13.2 mg/dL
  CRE: 0.4 mg/dL
  Ca: 10.7 mg/dL
  Cl: 103.4 meq/L
  DBIL: 0.07 mg/dL
  GLC: 212.8 mg/dL
  IP: 10.8 mg/dL
  K: 4 meq/L
  LDH: 203.8 IU/L
  Na: 141.4 meq/L
  PL: 151 mg/dL
  RALB: 3.6 g/dL
  TBIL: 0.1 mg/dL
  TC: 92.6 mg/dL
  TG: 45.8 mg/dL
  TP: 5.6 g/dL
  gamma-GTP: 1 IU/L
6 h
  TERMINAL_BW: 219.9 g
  APTT: 20.9 s
  Bas: 0.4%
  Eos: 1%
  Fbg: 221.6 mg/dL
  Hb: 13.9 g/dL
  Ht: 40.1%
  Lym: 81.6%
  MCH: 21.3 pg
  MCHC: 34.6%
  MCV: 61.5 fL
  Mono: 2.4%
  Neu: 14.2%
  PT: 12.2 s
  Plat: 132.9 x10_4/uL
  RBC: 652 x10_4/ul
  Ret: 7%
  WBC: 82.3 x10_2/uL
  KIDNEY_L: 1 g
  KIDNEY_R: 1 g
  KIDNEY_TOTAL: 2 g
  LIVER: 9.9 g
  A/G: 1.6
  ALP: 792.8 IU/L
  ALT: 31.6 IU/L
  AST: 70.6 IU/L
  BUN: 10 mg/dL
  CRE: 0.4 mg/dL
  Ca: 10.5 mg/dL
  Cl: 101.8 meq/L
  DBIL: 0.064 mg/dL
  GLC: 195.6 mg/dL
  IP: 9.4 mg/dL
  K: 4.1 meq/L
  LDH: 169 IU/L
  Na: 140.4 meq/L
  PL: 135.6 mg/dL
  RALB: 3.4 g/dL
  TBIL: 0.1 mg/dL
  TC: 79.2 mg/dL
  TG: 45.2 mg/dL
  TP: 5.6 g/dL
  gamma-GTP: 1 IU/L
9 h
  TERMINAL_BW: 218.6 g
  APTT: 19 s
  Bas: 0.6%
  Eos: 0.8%
  Fbg: 227.6 mg/dL
  Hb: 14.1 g/dL
  Ht: 40.8%
  Lym: 72.8%
  MCH: 21.4 pg
  MCHC: 34.5%
  MCV: 62.2 fL
  Mono: 3%
  Neu: 22%
  PT: 12.9 s
  Plat: 124.3 x10_4/uL
  RBC: 655 x10_4/ul
  Ret: 6.7%
  WBC: 79.5 x10_2/uL
  KIDNEY_L: 0.9 g
  KIDNEY_R: 0.9 g
  KIDNEY_TOTAL: 1.9 g
  LIVER: 9.5 g
  A/G: 1.5
  ALP: 754.8 IU/L
  ALT: 31 IU/L
  AST: 67.2 IU/L
  BUN: 10.8 mg/dL
  CRE: 0.4 mg/dL
  Ca: 10.5 mg/dL
  Cl: 104.2 meq/L
  DBIL: 0.064 mg/dL
  GLC: 211.2 mg/dL
  IP: 9.1 mg/dL
  K: 3.8 meq/L
  LDH: 230 IU/L
  Na: 141.2 meq/L
  PL: 124.8 mg/dL
  RALB: 3.4 g/dL
  TBIL: 0.1 mg/dL
  TC: 65 mg/dL
  TG: 56.8 mg/dL
  TP: 5.7 g/dL
  gamma-GTP: 1 IU/L
24 h
  TERMINAL_BW: 221.4 g
  APTT: 21.7 s
  Bas: 0.2%
  Eos: 1%
  Fbg: 215.6 mg/dL
  Hb: 14.6 g/dL
  Ht: 42%
  Lym: 76.8%
  MCH: 22.2 pg
  MCHC: 34.7%
  MCV: 63.8 fL
  Mono: 5%
  Neu: 16.6%
  PT: 14.5 s
  Plat: 140.8 x10_4/uL
  RBC: 658.2 x10_4/ul
  Ret: 6.5%
  WBC: 91.5 x10_2/uL
  KIDNEY_L: 1 g
  KIDNEY_R: 1 g
  KIDNEY_TOTAL: 2.1 g
  LIVER: 11.2 g
  A/G: 1.8
  ALP: 1020 IU/L
  ALT: 37.8 IU/L
  AST: 74 IU/L
  BUN: 17.2 mg/dL
  CRE: 0.4 mg/dL
  Ca: 10.4 mg/dL
  Cl: 105.4 meq/L
  DBIL: 0.1 mg/dL
  GLC: 187.8 mg/dL
  IP: 8.4 mg/dL
  K: 4.6 meq/L
  LDH: 207.4 IU/L
  Na: 140.6 meq/L
  PL: 120.8 mg/dL
  RALB: 3.3 g/dL
  TBIL: 0.2 mg/dL
  TC: 52 mg/dL
  TG: 120.6 mg/dL
  TP: 5.1 g/dL
  gamma-GTP: 1.4 IU/L
